The test concerns rat liver microsomes (RLMs). Kind of test: Michaelis-Menten kinetics (Km) of rivaroxaban in RLMs. In kind it is in vitro ADME. To be noted: read-out: Km of rivaroxaban. Here is the method: Three samples from each group were incubated, centrifuged, and separated as described earlier. The LC–MS/MS method was used to detect rivaroxaban metabolites. Km was calculated by applying the Michaelis–Menten equation using Prism v. 9.0 (GraphPad Software, MA, USA).

Data on 1 molecule can be found in paper PMC12133000 (PLOS One, 2025).

Turning to `O=C(NC[C@H]1CN(c2ccc(N3CCOCC3=O)cc2)C(=O)O1)c1ccc(Cl)s1` [rivaroxaban, Rivaroxaban], the Michaelis constant (Km) – broadly, the substrate concentration at which the rate is half of its maximum – turned out to be 17.6 µM.
